Earlier results as cited in patent US11311591B2, “Use of copaifera oleoresin in pathologies of the prostate” (PIERRE FABRE MEDICAMENT, priority 2017, dated 2022).
pIC50: −log10 of the molar value.

How the values were obtained:
HSP27 = HSP27 (Homo sapiens, UniProt P04792); details: prior art, Phytochemistry Letters 10 (2014)
[1] = test system: serum dihydrotestosterone
5αR1 = biological target: T1, 5αR1 (Homo sapiens, UniProt P18405)
T1 sequence (P18405 1-259): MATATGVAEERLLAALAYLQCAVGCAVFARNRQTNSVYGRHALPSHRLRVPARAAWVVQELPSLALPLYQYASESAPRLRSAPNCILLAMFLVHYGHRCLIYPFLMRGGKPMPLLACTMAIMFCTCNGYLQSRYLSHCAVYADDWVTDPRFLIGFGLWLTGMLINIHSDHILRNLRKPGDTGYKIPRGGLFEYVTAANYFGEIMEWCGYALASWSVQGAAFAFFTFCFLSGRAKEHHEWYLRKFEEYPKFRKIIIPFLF

Chain of HSP27 (P04792 whole entry): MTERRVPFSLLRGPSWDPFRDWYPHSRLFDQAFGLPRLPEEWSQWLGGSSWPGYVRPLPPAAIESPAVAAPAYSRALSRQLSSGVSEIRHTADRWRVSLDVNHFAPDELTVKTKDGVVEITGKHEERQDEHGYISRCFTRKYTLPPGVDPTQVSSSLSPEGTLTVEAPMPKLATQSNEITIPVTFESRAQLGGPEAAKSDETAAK

| SMILES | inhibition of HSP27 (in words) (HSP27) | reduction of mean serum dihydrotestosterone levels [1] [%] | pIC50 (5αR1) |
| --- | --- | --- | --- |
| CC1CCC2(C)C(C(=O)O)=CCCC2C1(C)CCc1ccoc1 (centres unmarked) [hardwickiic acid, Hardwickiic acid] | inhibits HSP27 | – | – |
| C[C@]12C=CC(=O)N[C@@H]1CC[C@@H]1[C@@H]2CC[C@]2(C)[C@@H](C(=O)Nc3cc(C(F)(F)F)ccc3C(F)(F)F)CC[C@@H]12 [dutasteride] | – | 94.7 | 8.22 |
| CC(C)(C)NC(=O)[C@H]1CC[C@H]2[C@@H]3CC[C@H]4NC(=O)C=C[C@]4(C)[C@H]3CC[C@]12C [Finasteride] | – | 70.8 | 6.44 |
